Experiments:
[1] = test system: MOLM-13.luc.c4 (MOLM-13 human AML cells); assay: Antitumor efficacy and survival/increase in life span (ILS) in disseminated MOLM-13.luc.c4 AML model; type: in vivo, SCID beige mice; conditions: for tumor burden by BLI photon counts compared to Vehicle-treated control (FIG. 1) / antitumor activity as assessed by tumor burden (BLI) or ILS: monotherapy; for tumor burden by BLI photon counts compared to Vehicle-treated control (FIG. 1): treatment initiated on day 3
Description: (§1) Female SCID beige mice (10/group), obtained from Charles River Laboratories (Wilmington, DE) were used when they were approximately 8-12 weeks old and weighed approximately 20-25 grams. The health of the mice was assessed daily by gross observation and analyses of blood samples taken from sentinel animals housed on shared shelf racks. All animals were allowed to acclimate and recover from any shipping-related stress for a minimum of 72 hours prior to experimental use. Autoclaved water and irradiated food (5058-ms Pico Lab mouse chow, Purina Mills, Richmond, IN) were provided ad libitum, and the animals were maintained on a 12 hour light and dark cycle. Cages, bedding and water bottles were autoclaved before use and changed weekly. All animal experiments were conducted in accordance with the Guide for the Care and Use of Laboratory Animals, local regulations, and protocols approved by the Roche Animal Care and Use Committee in an AAALAC accredited facility.
Parental MOLM-13 human AML cells were stably transfected with Luc2 lentiviral particles for 24 hrs in the presence of Polybrene (8 ug/ml) and then selected in the presence of Blasticidin for 3 weeks. Subsequently, one clone was selected by single cell plating in the presence of 0.1 mg/mL G418 and was designated MOLM-13.luc.c4. The lentiviral Luc2 expression plasmid was constructed by incorporating Luc2 gene (Promega) in to pLOC lentiviral plasmid backbone (Thermo Fisher Scientific). Luc2 lentiviral particles were prepared by using Trans-Lentiviral Packaging System (Thermo Fisher Scientific) as recommended.
MOLM-13.luc.c4 was maintained with RPMI 1640 with L-glutamine (2 mM) media (GIBCO/Invitrogen, Carlsbad, CA) supplemented with 10% heat-inactivated Fetal Bovine Serum (HI-FBS; GIBCO/Invitrogen, Carlsbad, CA), and 1% 100 mM sodium pyruvate. Freshly dissociated MOLM13-Luc.c4 cells (1×106 or 5×106) suspended in Phosphate Buffered Saline (PBS) were then intravenously inoculated via the caudal tail vein into female SCID-beige mice.
It was then filtered thru a 0.22 micron filter into a septum sealed vial for intravenous administration. […] Stock cytarabine (Ara-C injection, 100 mg/ml) was diluted in sterile 0.9% sodium chloride to 44 mg/ml according to manufacturer's instructions and dosed at 200 mg/kg iv twice weekly.
Treatment duration was 3 weeks.
(§2) For increased life span (ILS) assessment, animal body weights were measured two to three times per week, and animals were monitored daily for any clinical signs of toxicity or excessive tumor burden (i.e. hind limb paralysis or morbidity). In addition, progression of disease was monitored by in vivo bioluminescent imaging (BLI) using IVIS® Spectrum system. For each BLI session, mice received 100 mg/kg D-luciferin (Caliper Life Sciences/Perkin-Elmer) via ip injections and were imaged at 20 min post luciferin injection at either a 5 s or a 10 s exposure time. Images were captured by the IVIS® Spectrum system and data were collected and analyzed with Living Image 4.2.0 software (Caliper Life Sciences, Hopkinton, MA). Total photon fluxes (ph/s) representing luciferase activity within each fixed region of interest (ROI) covering whole tumors of individual mice were determined. The actual images of mice are not disclosed herein.
Quantification of bioluminescence allowed for direct longitudinal comparison of tumor burden between treatment groups prior to surrogate death end points being reached. Tumor burden was graphically represented as the mean BLI photon flux+standard error of the mean (SEM), and median survival was determined utilizing Kaplan Meier survival analysis. Statistical analysis of comparisons between groups was analyzed by two-way ANOVA, and post-hoc Bonferroni test (GraphPad Prism, version 4.3). Differences between groups were considered to be significant when the probability value (p) was ≤0.05.

[2] = Ara-C 200 mg/kg 2×/week iv; 10/group
Description: as §1, with “Cages, bedding and water bottles were autoclaved before use and changed weekly. All animal experiments were conducted in accordance with the Guide for the Care and Use of Laboratory Animals, local regulations, and protocols approved by the Roche Animal Care and Use Committee in an AAALAC accredited facility.” left out
as §2, with “For each BLI session, mice received 100 mg/kg D-luciferin (Caliper Life Sciences/Perkin-Elmer) via ip injections and were imaged at 20 min post luciferin injection at either a 5 s or a 10 s exposure time.” left out, “The actual images of mice are not disclosed herein.” left out

Row | Compound | % ILS vs. Vehicle control ([1]; Cpd I-B 437 mg/kg q7d iv) [%] | Median survival ([1]; Cpd I-B 437 mg/kg q7d iv, 5 million cells, treatment from day 3) [days] | % ILS vs. Vehicle control ([1]; Cpd I-B 437 mg/kg q7d iv, listed as Cpd I-B) | tumor burden by BLI photon counts compared to Vehicle-treated control (FIG. 1) ([1]; 5 million cells) | Mortality [2] | % ILS vs. Vehicle control ([1]; Ara-C 200 mg/kg 2×/wk iv) [%] | Median survival ([1]; Ara-C 200 mg/kg 2×/wk iv) [days] | antitumor activity as assessed by tumor burden (BLI) or ILS [1] | antitumor activity as assessed by tumor burden (BLI) or ILS ([1]; listed as Cytarabine (Ara-C)) | % ILS vs. Vehicle control ([1]; Cpd (A) 80 mg/kg qd × 5 po) | Median survival ([1]; Cpd (A) 80 mg/kg qd × 5 po) [days] | % ILS vs. Vehicle control ([1]; Cpd (A) 100 mg/kg q7d po) | Median survival ([1]; Cpd (A) 100 mg/kg q7d po) [days]
1 | 4-{[(2R,3S,4R,5S)-3-(3-Chloro-2-fluoro-phenyl)-4-(4-chloro-2-fluoro-phenyl)-4-cyano-5-(2,2-dimethyl-propyl)-pyrrolidine-2-carbonyl]-amino}-3-methoxy-benzoic acid 1-mPEG-carbonyloxy-ethyl ester (mPEG, average MW, 2200) [compound I-B] | 37 | 28 | *37% | significantly reduced photon counts | – | – | – | – | – | – | – | – | –
2 | Nc1ccn([C@@H]2O[C@H](CO)[C@@H](O)[C@@H]2O)c(=O)n1 [Ara-C, cytarabine, reference compound] | – | – | – | no difference | 0 | 0 | 20 | lack of monotherapy activity | lack of antitumor activity | – | – | – | –
3 | COc1cc(C(=O)O)ccc1NC(=O)[C@@H]1N[C@@H](CC(C)(C)C)[C@](C#N)(c2ccc(Cl)cc2F)[C@H]1c1cccc(Cl)c1F [compound (A), 4-{[(2R,3S,4R,5S)-4-(4-Chloro-2-fluoro-phenyl)-3-(3-chloro-2-fluoro-phenyl)-4-cyano-5-(2,2-dimethyl-propyl)-pyrrolidine-2-carbonyl]-amino}-3-methoxy-benzoic acid] | – | – | – | – | – | – | – | – | – | *37% | 28 | *22% | 25

Source: patent US20230381215A1, “NOVEL COMBINATION TREATMENT FOR ACUTE MYELOID LEUKEMIA (AML)” (Hoffmann-La Roche Inc., priority 2013, published 2023)
